From publication PMC7822874, “Chemoprotective antimalarials identified through quantitative high-throughput screening of Plasmodium blood and liver stage parasites” (Scientific Reports, 2021)

system: Plasmodium falciparum Dd2 asexual blood stage parasites; test: microbe, parasite or virus in culture; set-up: species or system Plasmodium falciparum Dd2 in human erythrocytes; single determination (one 11-point concentration-response curve); conditions: Plasmodium falciparum, DD2, Erythrocyte, 72 h; read-out: AC50

SMILES	AC50
CN1CCN(Cc2ccccc2Oc2ccc(C(F)(F)F)cn2)CC1 [NCGC00433787-01]	0.531 µM
CC(=O)Nc1ccc(NC(=O)c2c(C)oc3ccn(Cc4ccc(F)cc4)c(=O)c23)cc1 [NCGC00433889-01]	10.6 µM
COc1ccc(CC(=O)N2CCC(Oc3ncccc3C(=O)N3CCCCC3)C2)cc1 (stereo not drawn) [NCGC00434230-01]	9.44 µM
NCCc1cccc(CN2CCCC(COc3ccccc3F)C2)c1 (stereo not drawn) [NCGC00434821-01]	2.66 µM
c1cnc(N2CCOCC2)c(OC2CCNC2)n1 (stereo not drawn) [NCGC00434832-01]	7.5 µM
Cc1ccc2c(C)c(C(=O)N3CCCC3c3nc(C(C)C)no3)oc2c1C (stereo not drawn) [NCGC00435047-01]	6.68 µM
C=CCCC(CN1CCCC1)Oc1ccc(C(=O)N2CCCC2)cn1 (stereo not drawn) [NCGC00435125-01]	13.3 µM
COc1cc(=O)n2c(c1C(=O)Nc1ccc(N(C)C)cc1)CCCC2 [NCGC00435410-01]	10.6 µM
COc1ccc(-c2cc(N3CCN(C(=O)c4c[nH]c5ccccc45)CC3)[nH]n2)cc1 [NCGC00436860-01]	15 µM
COc1cc(C(=O)NC2CCN(c3cc(-c4ccccc4)n[nH]3)CC2)cc(OC)c1OC [NCGC00436906-01]	5.96 µM
CN1CCN(C(=O)C2(N(C)CCc3ccccc3)Cc3ccccc3C2)CC1 [NCGC00438807-01]	2.66 µM
O=C(NCCN1CCCC1)C1CN([S+](=O)([O-])c2cccs2)CC12CCCCC2 (stereo not drawn) [NCGC00439935-01]	13.3 µM
COc1ccc(C)cc1NC(=O)N1CCCC2(C1)Nc1cccnc1N=C2NC1CCCC1 (stereo not drawn) [NCGC00440441-01]	6.68 µM
CC(C)Nc1nccc(C2(c3ccccc3Cl)CCNCC2)n1 [NCGC00440810-01]	9.44 µM
CCCNC(=O)N1CC(Oc2cccc(-c3nc(-c4ccccc4)no3)c2)C1 [NCGC00441277-01]	13.3 µM
CCn1ccc2ccc(CN3CCCC(O)(CN4CCCC4)C3)cc21 (stereo not drawn) [NCGC00441341-01]	7.5 µM
CCn1cc(CN2CCCC23CCN(c2cc(C)nc4ccccc24)CC3)c(C)n1 [NCGC00442249-01]	4.22 µM
O=C(c1cccs1)N1CCC(O)(c2ccccc2)[C@H](N2CCCC2)C1 (stereo partly drawn) [NCGC00442580-01]	9.44 µM
O[C@]1(c2ccccc2)CCN(Cc2ccncc2)C[C@H]1N1CCCC1 [NCGC00442600-01]	9.44 µM
O[C@]1(c2ccccc2)CCN(Cc2ccco2)C[C@H]1N1CCCC1 [NCGC00442602-01]	8.41 µM

SMILES	AC50
Cc1nn(CCC(=O)N[C@H]2CC[C@H]2NC2CCCCC2)c(C)c1C [NCGC00442733-01]	6.68 µM
COc1ccccc1C(=O)N1CCC2(CC1)c1nccn1-c1ccccc1CN2CC(C)C [NCGC00442752-01]	11.9 µM
CCn1ncc(CN2CCCC23CCN(c2cc(C)nc4ccccc24)CC3)c1C [NCGC00442843-01]	5.31 µM
CC(C)n1cc(CN2CCCC23CCN(c2ccc(C(F)(F)F)cn2)CC3)cn1 [NCGC00442913-01]	9.44 µM
Cc1ccc(O)c(CN2CCCC(c3nc(CC(C)C)no3)C2)c1 (stereo not drawn) [NCGC00443337-01]	9.44 µM
CN1CCCC(CN(CCc2ccccc2)C(=O)c2cc(C#N)cn2C)C1 (stereo not drawn) [NCGC00443707-01]	9.44 µM
CN(C)C(C(=O)N1CCC(F)(F)CC1)c1ccccc1F (stereo not drawn) [NCGC00444487-01]	15 µM
Cc1ccc([S+](=O)([O-])N2CCC(OC3CCN(Cc4ccccc4)CC3)CC2)cc1C [NCGC00444948-01]	15 µM
Cc1ccc(NC(=O)N2CCC(OC3CCN([S+](C)(=O)[O-])CC3)CC2)cc1F [NCGC00445040-01]	15 µM
CC(C)[C@@H]1CN([S+](=O)([O-])c2ccc(Cl)cc2Cl)C[C@H]1N(C)C [NCGC00445159-01]	6.68 µM
CC(C)c1ccccc1NC(=O)Cn1cccc1-c1nc(-c2ccccc2)no1 [NCGC00445236-01]	4.22 µM
CC(C)c1ccccc1NC(=O)Cn1cccc1-c1nc(-c2ccc(F)cc2)no1 [NCGC00445438-01]	2.99 µM
COc1cccc(NC(=O)Cn2cccc2-c2nc(-c3ccc(OC)c(F)c3)no2)c1 [NCGC00445448-01]	6.68 µM
COc1ccc(NC(=O)Cn2cccc2-c2nc(-c3ccc(OC)c(F)c3)no2)cc1 [NCGC00445480-01]	4.73 µM
COc1ccc(-c2noc(-c3cccn3CC(=O)Nc3ccccc3C)n2)cc1F [NCGC00445484-01]	5.31 µM
COc1ccc(-c2noc(-c3cccn3CC(=O)Nc3ccc(C)cc3C)n2)cc1F [NCGC00445492-01]	10.6 µM
CC(=O)Nc1cccc(C(=O)N2CCC3(CC2)NC(c2ccc(C)cc2)=NO3)c1 [NCGC00446797-01]	0.841 µM
Cc1ccc(C)c(C(=O)N2CCC3(CC2)NC(c2ccc(Cl)cc2)=NO3)c1 [NCGC00447013-01]	9.44 µM
CC(C)(C)c1ccc(C(=O)N2CCN(C(=O)c3nnn4c3COC(c3ccccc3)C4)CC2)cc1 (stereo not drawn) [NCGC00449161-01]	10.6 µM
CCOc1ccccc1C(=O)N1CCN(C(=O)c2nnn3c2COC(c2ccccc2)C3)CC1 (stereo not drawn) [NCGC00449179-01]	16.8 µM

SMILES	AC50
CC(C)(C)c1ccc(-c2noc(-c3ncn4c3COC(c3ccc(F)cc3)C4)n2)cc1 (stereo not drawn) [NCGC00449976-01]	15 µM
Cc1ccc(-n2c(C3CCN(C(=O)COc4ccc(Cl)cc4)CC3)n[nH]c2=O)cc1 [NCGC00451295-01]	10.6 µM
COc1cccc([S+](=O)([O-])N2CCC3(CC2)CC(N(C)Cc2ccccc2)CCO3)c1 (stereo not drawn) [NCGC00453781-01]	8.41 µM
Cc1cn2nc(C(=O)Nc3ccc(N(C)C)cc3)cc2c(N(C)Cc2ccccc2)n1 [NCGC00454159-01]	15 µM
CCOc1ccc(NC(=O)c2nnn3cc(C)[nH]c(=O)c23)cc1 [NCGC00454245-01]	10.6 µM
Cc1ccc(C2Cn3nnc(-c4noc(-c5n[nH]c6c5CCCC6)n4)c3CO2)cc1 (stereo not drawn) [NCGC00454353-01]	13.3 µM
Cc1cc2nc3n(c(=O)c2n1CC(=O)Nc1ccccc1C(C)C)CCCCC3 [NCGC00455404-01]	8.41 µM
COc1ccc2[nH]cc(CCNC(=O)C3(Cc4ccccc4)CCCCC(=O)N3)c2c1 (stereo not drawn) [NCGC00456177-01]	5.96 µM
COc1ccc(CCC(=O)N2Cc3ccccc3OC3(CCN(C)CC3)C2)cc1 [NCGC00456460-01]	7.5 µM
CN1CCC2(CC1)CN(C(=O)CCc1ccccc1)Cc1ccccc1O2 [NCGC00456463-01]	6.68 µM
CC(C)C(=O)N1Cc2ccccc2OC2(CCN(C(C)C)CC2)C1 [NCGC00456474-01]	10.6 µM
CC(C)N1CCC2(CC1)CN(C(=O)Cc1cccc(F)c1)Cc1ccccc1O2 [NCGC00456475-01]	15 µM
O=C(NCCCN1CCc2ccccc2C1)C1Cn2cccc2C(=O)N1Cc1ccccc1 (stereo not drawn) [NCGC00456658-01]	9.44 µM
O=C(c1cccs1)N1CCCCCC1CN1CCCC1 (stereo not drawn) [NCGC00456696-01]	10.6 µM
CC1CCN(CC2CCCCCN2C(=O)Cc2ccccc2)CC1 (stereo not drawn) [NCGC00456721-01]	9.44 µM
CC1CCN(CC2CCCCCN2C(=O)NCc2ccc(F)cc2)CC1 (stereo not drawn) [NCGC00456722-01]	13.3 µM
COc1cccc(CC(=O)N2CCCC(CN3CCCC3)CC2)c1 (stereo not drawn) [NCGC00456752-01]	15 µM
CCC(C(=O)NCCn1ccn2nc(-c3ccc(OC)cc3)cc2c1=O)c1ccccc1 (stereo not drawn) [NCGC00456905-01]	15 µM
O=C(Cc1ccc(Cl)cc1)NCc1nnc2cc(-c3nc(C4CC4)no3)ccn12 [NCGC00457746-01]	7.5 µM
CCn1cc(CN2CC(Oc3ccc(-c4noc(-c5ccncc5)n4)cc3)C2)cn1 [NCGC00458017-01]	13.3 µM
